Measurements: PMC4129108, “The natural triterpene 3β,6β,16β-trihydroxy-lup-20(29)-ene obtained from the flowers of Combretum leprosum induces apoptosis in MCF-7 breast cancer cells” (BMC Complementary and Alternative Medicine, 2014)
In brackets after ≈: the same amount, converted by molar mass.

Tests used:
MCF-7 cells [1] = assay: Apoptosis by flow cytometry (Annexin V-PE/7-AAD); assay type: cell-based, human; conditions: MCF-7, 24 h
Procedure: (§1) Cells (2 × 10^5 cells/mL) were seeded on 6-well tissue culture plates, and grown for 1 day up to 70–80% confluence before treatment with the test substance. The TTHL was added to medium with FBS to obtain the different concentrations, and cells were treated at 37°C for 24 h in humidified atmosphere containing 5% CO2.
Annexin V-PE was used in conjunction with a vital dye, 7-AAD, to distinguish apoptotic (Annexin V-PE positive, 7-AAD negative) from necrotic (Annexin V-PE positive, 7-AAD positive) cells. After treatment, cells were trypsinized, collected and resuspended in 40 μL of binding buffer with 2 μL Annexin V-PE. Cells were incubated for 15 min in the dark at room temperature. After incubation, 160 μL of binding buffer and 2 μL of 7-AAD were added. Cells were incubated for 5 min and additional 200 μL of binding buffer were added. Before analysis, cells were filtered through a cell strainer cap fitted to a polystyrene round bottom flow cytometric tube. Data were collected and analyzed by a FACS Calibur flow cytometer with CellQuest software, in a total of 10,000 events per sample; fluorescence was measured and the percentage of viable, early apoptotic, late apoptotic and necrotic cells was determined.

MCF-7 cells [2] = assay: Cell cycle distribution by flow cytometric analysis (PI); assay type: cell-based, human; conditions: MCF-7, 24 h
Procedure: as §1
Cell cycle distribution determination analysis was performed as previously described. After treatment, cells were trypsinized, centrifuged and resuspended in ice-cold 70% ethanol, and left for 24 h at 4°C. Ethanol-fixed cells were centrifuged, washed with PBS and resuspended in buffer containing 0.2 mg/mL RNAse, 50 μg/mL PI and 0.1% Triton X-100, and incubated for 30 min at room temperature. Samples were analyzed on a FACS Calibur flow cytometer (Becton-Dikinson, San Fransisco, CA) using the CellQuest software. A total of 10,000 events were measured per sample. The data were analyzed to determine the percentage of cells at each phase of the cell cycle (sub-G1, G1, S and G2/M).

[3] = system: S. cerevisiae EG118 (sod1Δ); assay: Yeast survival assay, EG118 (sod1Δ); assay type: cell-based, Saccharomyces cerevisiae; conditions: for survival (percentage in relation to negative control): STAT cells, 1 h in PBS 30°C
Procedure: (§2) Media, solutions and buffers were prepared according to Burke et al.. YPD medium (0.5% yeast extract, 2% peptone, 2% glucose) was used for routine growth. Synthetic medium SC (0.67% yeast nitrogen base, 0.1% ammonium sulfate, 2% glucose) supplemented with the appropriate amino acids and bases ([…]) was used for the detection of mutations.
(§3) Stationary phase (STAT) cultures were obtained by inoculation of a single colony into liquid YPD. We chose to work in the stationary phase of growth because this resembles most cells of multicellular organisms in important aspects: (i) most energy comes from mitochondrial respiration; (ii) the cells have left the active cell cycle and have entered the Go phase; and (iii) damage accumulates over time.
(§4) STAT cells (1 × 10^8 cells/mL) were exposed to TTHL (10–500 μg/mL) and incubated under growth conditions for 1 h in PBS at 30°C. Cells were then washed and treated with H2O2 (5 mM) in PBS for another hour. Suitable aliquots were plated in triplicate on solid YPD (2–3 days, 30°C) and colony-forming units were counted. Sensitivity was expressed as a percentage of survival in relation to the negative control (solvent).

[4] = system: CACO-2 (colorectal adenocarcinoma); assay: XTT cell viability assay, CACO-2; assay type: cell-based, human; conditions: for IC50: Homo sapiens, XTT
Procedure: (§5) The human cell lines MCF-7 (breast adenocarcinoma), HepG2 (hepatoma), T24 (bladder cancer), CACO-2 (colorectal adenocarcinoma) and MRC5 (lung normal fibroblast) were obtained from the Rio de Janeiro Cell Bank (Rio de Janeiro, RJ, Brazil). The HCT116 cell (colorectal carcinoma), and HT29 cell (colorectal adenocarcinoma) were kindly provided by Dr. Annette K. Larsen (Institut National de la Santé et de la Recherche Médicale - INSERM, Paris, França). All cell lines except MCF-7 were grown in DMEM supplemented with 10% or 20% (for CACO-2) FBS, 100 units.mL^-1 penicillin and 100 μg.mL^-1 streptomycin at 37°C in a humidified atmosphere of 5% CO2. MCF-7 cells were maintained in RPMI-1640 supplemented with 20% FBS at the same conditions described above.
(§6) The cytotoxic potential of the TTHL was evaluated by the XTT assay in human tumor cell lines as well as in MRC5 normal fibroblasts. Cells (1 × 10^4 cells) were seeded on 96-well plates in growth medium and incubated overnight. Afterwards, TTHL (0.5, 1.0, 2.5, 5.0, and 10 μg/mL) was added to each well and incubated for 24, 48, 72, and 120 h. Mitoxantrone, a cytostatic anthracenedione that intercalates in DNA and increases the incidence of double-strand breaks by stabilizing the cleavable complex of topoisomerase II and DNA, was used as positive control. At the end of each treatment, cell viability was assessed according to the manufacturer’s instructions. Briefly, after discarding the medium, 1 mL of XTT labeling mixture was added to the cells and incubated for 2 h at 37°C. Absorbance was measured with a SpectraMax reader (Bio-Rad, USA) at a test wavelength of 492 nm (A492) and a reference wavelength of 690 nm (A690). The final result corresponds to A492-A690. The absorbance of negative control cells was set as 100% viability, and the values for treated cells were calculated as a percentage of the control.
(§7) The IC20, IC50, and IC80 values and their 95% confidence intervals (CI 95%) were obtained by nonlinear regression using GraphPad Prism v5 program (Intuitive Software for Science, San Diego, CA, USA). Selective index (SI) was calculated by IC50 in MRC5 cells/IC50 in tumoral cells. All experiments were independently repeated at least three times, with triplicate samples for each treatment. Results are expressed as means ± standard deviation (SD). Data were analyzed by one-way analysis of variance (ANOVA), and means were compared using Tukey test, with P ≤ 0.05 considered as statistically significant.

[5] = system: MRC5 (lung normal fibroblast); assay: XTT cell viability assay, MRC5 normal fibroblasts; assay type: cell-based; conditions: Homo sapiens
Procedure: as §5, §6, §7

[6] = system: S. cerevisiae EG103 (SOD-WT); assay: Yeast survival assay, EG103 (SOD-WT); assay type: cell-based, Saccharomyces cerevisiae; conditions: STAT cells, 1 h in PBS 30°C
Procedure: as §2, §3, §4

C=C(C)[C@@H]1CC[C@@]2(C)[C@H]1[C@H]1CC[C@@H]3[C@@]4(C)CC[C@H](O)C(C)(C)[C@@H]4[C@H](O)C[C@@]3(C)[C@]1(C)C[C@@H]2O [TTHL, 3β,6β,16β-trihydroxy-lup-20(29)-ene]
apoptosis induced (% of MCF-7 cells) (MCF-7 cells [1]; TTHL at IC50): 14% | percentage of necrotic cells (labeled with 7-AAD) (MCF-7 cells [1]; TTHL at IC50): less than 5% | cells in early apoptosis (labeled with annexin V-PE) (MCF-7 cells [1]; TTHL at IC80): approximately 55% | cells in late apoptosis (labeled with both annexin V-PE and 7-AAD) (MCF-7 cells [1]; TTHL at IC80): 15% | percentage of necrotic cells (labeled with 7-AAD) (MCF-7 cells [1]; TTHL at IC80): less than 5% | change in cell cycle progression (MCF-7 cells [2]; TTHL at IC20, IC50, IC80): no significant change in cell cycle progression | sub-G1 population (MCF-7 cells [2]; seen at IC50 and IC80, concentration-dependent): significant increase in the sub-G1 population | survival (percentage in relation to negative control) ([3]; TTHL 10 μg/mL): 92.60 ± 2.83% | survival (percentage in relation to negative control) ([3]; TTHL 50 μg/mL): 89.30 ± 0.85 % | survival (percentage in relation to negative control) ([3]; TTHL 100 μg/mL): 75.65 ± 4.60 % | survival (percentage in relation to negative control) ([3]; TTHL 500 μg/mL): 69.30 ± 3.68 % | sensitivity of the strain to TTHL (in words) ([3]; deficient in superoxide dismutase): hypersensitive | IC50 ([4]; CACO-2, 24 h treatment): 8.55 ± 0.35 µg/mL (≈ 18.6 µM) | IC50 ([4]; CACO-2, 48 h treatment): 7.9 ± 0.28 µg/mL (≈ 17.2 µM) | IC50 ([4]; CACO-2, 72 h treatment): 6.35 ± 0.35 µg/mL (≈ 13.8 µM) | IC50 ([4]; CACO-2, 120 h treatment): 5 ± 0.19 µg/mL (≈ 10.9 µM) | Selectivity index (SI) ([4]; IC50 in MRC5 cells/IC50 in CACO-2, 24 h): MR (MR: more resistant in tumoral cells) | Selectivity index (SI) ([4]; IC50 in MRC5 cells/IC50 in CACO-2, 48 h): MR (MR: more resistant in tumoral cells) | Selectivity index (SI) ([4]; IC50 in MRC5 cells/IC50 in CACO-2, 72 h): 1 X | Selectivity index (SI) ([4]; IC50 in MRC5 cells/IC50 in CACO-2, 120 h): 1 X | IC50 ([5]; MRC5, 24 h treatment): 8.4 ± 0.28 µg/mL (≈ 18.3 µM) | IC50 ([5]; MRC5, 48 h treatment): 7.6 ± 0.14 µg/mL (≈ 16.6 µM) | IC50 ([5]; MRC5, 72 h treatment): 7.4 ± 0.15 µg/mL (≈ 16.1 µM) | IC50 ([5]; MRC5, 120 h treatment): 6.84 ± 0.1 µg/mL (≈ 14.9 µM) | survival (percentage in relation to negative control) ([6]; TTHL 10 μg/mL): 100 ± 2.83% | survival (percentage in relation to negative control) ([6]; TTHL 50 μg/mL): 87.65 ± 5.16 % | survival (percentage in relation to negative control) ([6]; TTHL 100 μg/mL): 79.45 ± 1.91 % | survival (percentage in relation to negative control) ([6]; TTHL 500 μg/mL): 67.65 ± 3.04 %
